Measurements as given in PubChem BioAssay AID248 (DTP/NCI, 2004).
“And” between values parts separate entries of the source, which are not always exact repeats. Equal values may be shown once. Inconclusive results and toxic doses are left out. No stated cut-off is given here; in the data, active means T/C of 150% or more; inactive means T/C below 125%.

Tested on: L1210 leukemia ip in BDF1 mice, survival T/C
Experiment: NCI In Vivo Anticancer Drug Screen. Data for tumor model L1210 Leukemia (intraperitoneal) in B6D2F1 (BDF1) mice
Settings: endpoint: mean survival time, higher = longer survival
How it was run: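 Value reflects the ratio of survival in compound-treated mice to survival in vehicle-treated controls, with both groups carrying the same transplanted tumor.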

[1] = dose: 100.0 mg/kg/injection, schedule: Q01DX001 (ip), vehicle: carboxymethylcellulose (CMC)
[2] = dose: 200.0 mg/kg/injection, schedule: Q01DX001 (ip), vehicle: carboxymethylcellulose (CMC)
[3] = dose: 400.0 mg/kg/injection, schedule: Q01DX001 (ip), vehicle: carboxymethylcellulose (CMC)
[4] = dose: 100.0 mg/kg/injection, schedule: Q04DX003 (ip), vehicle: saline with Tween-80
[5] = dose: 200.0 mg/kg/injection, schedule: Q04DX003 (ip), vehicle: saline with Tween-80
[6] = dose: 400.0 mg/kg/injection, schedule: Q04DX003 (ip), vehicle: saline with Tween-80
[7] = dose: 100.0 mg/kg/injection, schedule: Q01DX001 (ip), vehicle: saline
[8] = dose: 200.0 mg/kg/injection, schedule: Q01DX001 (ip), vehicle: saline
[9] = dose: 400.0 mg/kg/injection, schedule: Q01DX001 (ip), vehicle: saline
[10] = dose: 100.0 mg/kg/injection, schedule: Q04DX003 (ip), vehicle: Klucel (hydroxypropylcellulose) (HPC)
[11] = dose: 200.0 mg/kg/injection, schedule: Q04DX003 (ip), vehicle: Klucel (hydroxypropylcellulose) (HPC)
[12] = dose: 400.0 mg/kg/injection, schedule: Q04DX003 (ip), vehicle: Klucel (hydroxypropylcellulose) (HPC)
[13] = dose: 100.0 mg/kg/injection, schedule: Q01DX009 (ip), vehicle: Klucel (hydroxypropylcellulose) (HPC)
[14] = dose: 200.0 mg/kg/injection, schedule: Q01DX009 (ip), vehicle: Klucel (hydroxypropylcellulose) (HPC)
[15] = dose: 100.0 mg/kg/injection, schedule: Q04DX002 (ip), vehicle: Klucel (hydroxypropylcellulose) (HPC)
[16] = dose: 200.0 mg/kg/injection, schedule: Q04DX002 (ip), vehicle: Klucel (hydroxypropylcellulose) (HPC)
[17] = dose: 400.0 mg/kg/injection, schedule: Q01DX009 (ip), vehicle: Klucel (hydroxypropylcellulose) (HPC)
[18] = dose: 100.0 mg/kg/injection, schedule: Q01DX001 (ip), vehicle: Klucel (hydroxypropylcellulose) (HPC)
[19] = dose: 200.0 mg/kg/injection, schedule: Q01DX001 (ip), vehicle: Klucel (hydroxypropylcellulose) (HPC)

Measured: T/C

CC(=O)Nc1c(Cl)c(Cl)c(Cl)c2c1-c1ccc(Cl)cc1C2
inactive: [1] 92 % of control | [2] 101 % of control | [3] 97 % of control

CCC(CO)NC1CCCC1 (centres undefined)
inactive: dose: 75.0 mg/kg/injection, schedule: Q01DX001 (ip), vehicle: acid diluted with saline 100 % of control | dose: 150.0 mg/kg/injection, schedule: Q01DX001 (ip), vehicle: acid diluted with saline 100 % of control | dose: 300.0 mg/kg/injection, schedule: Q01DX001 (ip), vehicle: acid diluted with saline 100 % of control

O=C1CC(=O)N(c2ccccc2)O1
inactive: [4] 92 % of control | [5] 112 % of control | [6] 91 % of control

C#CCOCC(O)C[As](=O)(O)c1ccc(Cl)cc1 (centres undefined)
inactive: dose: 6.25 mg/kg/injection, schedule: Q01DX001 (ip), vehicle: saline with Tween-80 101 % of control | dose: 12.5 mg/kg/injection, schedule: Q01DX001 (ip), vehicle: saline with Tween-80 106 % of control

CCCCC/C(=N/N)c1ccc2cc3c(cc2c1)CCCC3
inactive: [7] 97 % of control | [8] 95 % of control | [9] 90 % of control

S=C(c1ccccc1)N(c1ccccc1)c1ccc2ccccc2c1
inactive: [10] 98 % of control | [11] 95 % of control | [12] 94 % of control

CCC(=O)C(C)C(=O)Nc1ccccc1 (centres undefined)
inactive: [1] 102 % of control | [2] 94 % of control | [3] 100 % of control

Cc1ccc(C)c(NC(=O)Nc2ccccc2C)c1
inactive: [13] 88 % of control | [10] 86 % of control | [14] 101 % of control and 90 % of control | [11] 89 % of control | [12] 89 % of control

CN1C(=O)NC(C)(C)C1=O
inactive: [7] 99 % of control | [8] 97 % of control | [9] 94 % of control

C=CCc1cc(CN2CCOCC2)c(O)c(OC)c1
inactive: [13] 98 % of control | [15] 101 % of control and 108 % of control | [14] 97 % of control | [16] 89 % of control | [17] 103 % of control | dose: 400.0 mg/kg/injection, schedule: Q04DX002 (ip), vehicle: Klucel (hydroxypropylcellulose) (HPC) 107 % of control

Cc1ccc(C(C)C)cc1NC(=O)NCCCl
inactive: dose: 20.0 mg/kg/injection, schedule: Q04DX003 (ip), vehicle: Klucel (hydroxypropylcellulose) (HPC) 94 % of control | dose: 40.0 mg/kg/injection, schedule: Q04DX003 (ip), vehicle: Klucel (hydroxypropylcellulose) (HPC) 97 % of control | dose: 80.0 mg/kg/injection, schedule: Q04DX003 (ip), vehicle: Klucel (hydroxypropylcellulose) (HPC) 102 % of control | [10] 112 % of control | [11] 112 % of control

O=C(CCC(=O)c1ccc(Br)cc1)c1ccc(Br)cc1
inactive: dose: 50.0 mg/kg/injection, schedule: Q01DX001 (ip), vehicle: carboxymethylcellulose (CMC) 92 % of control | [1] 97 % of control | [2] 103 % of control | [3] 90 % of control

O=S(=O)(O)SCCCNCCCNCCCSS(=O)(=O)O
inactive: dose: 9.37 mg/kg/injection, schedule: Q01DX009 (ip), vehicle: saline 88 % of control | dose: 18.75 mg/kg/injection, schedule: Q01DX009 (ip), vehicle: saline 87 % of control | dose: 37.5 mg/kg/injection, schedule: Q01DX009 (ip), vehicle: saline 93 % of control | dose: 37.5 mg/kg/injection, schedule: Q04DX003 (ip), vehicle: saline 98 % of control | dose: 75.0 mg/kg/injection, schedule: Q01DX001 (ip), vehicle: saline 102 % of control | dose: 75.0 mg/kg/injection, schedule: Q04DX003 (ip), vehicle: saline 93 % of control | dose: 150.0 mg/kg/injection, schedule: Q01DX001 (ip), vehicle: saline 96 % of control

CC(C(O)c1ccc(F)cc1)C(O)(C(F)(F)F)C(F)(F)F (centres undefined)
inactive: [4] 97 % of control | [5] 98 % of control | [6] 86 % of control

CC1=COC(C)(C2NC(C)CC(C)(C)N2)CC1 (centres undefined)
inactive: dose: 44.0 mg/kg/injection, schedule: Q01DX Z (ip), vehicle: methylcellulose (MC) 100 % of control | dose: 100.0 mg/kg/injection, schedule: Q01DX Z (ip), vehicle: methylcellulose (MC) 95 % of control

CC(C)(C)C1Sc2nc3ccccc3n2C1=O (centres undefined)
inactive: dose: 12.5 mg/kg/injection, schedule: Q01DX009 (ip), vehicle: Klucel (hydroxypropylcellulose) (HPC) 101 % of control | dose: 12.5 mg/kg/injection, schedule: Q04DX003 (ip), vehicle: Klucel (hydroxypropylcellulose) (HPC) 98 % of control | dose: 25.0 mg/kg/injection, schedule: Q01DX009 (ip), vehicle: Klucel (hydroxypropylcellulose) (HPC) 97 % of control | dose: 25.0 mg/kg/injection, schedule: Q04DX003 (ip), vehicle: Klucel (hydroxypropylcellulose) (HPC) 92 % of control | dose: 50.0 mg/kg/injection, schedule: Q01DX009 (ip), vehicle: Klucel (hydroxypropylcellulose) (HPC) 96 % of control | dose: 50.0 mg/kg/injection, schedule: Q04DX003 (ip), vehicle: Klucel (hydroxypropylcellulose) (HPC) 92 % of control

O=C(NSN1CCOCC1)c1ccccc1
inactive: [15] 102 % of control | [16] 98 % of control

Nc1cc(Nc2ccccc2)nc(=O)[nH]1
inactive: [18] 94 % of control | [19] 97 % of control

CNC(=S)N(C)C
inactive: dose: 100.0 mg/kg/injection, schedule: Q04DX003 (ip), vehicle: saline sonified 114 % of control | dose: 200.0 mg/kg/injection, schedule: Q04DX003 (ip), vehicle: saline sonified 103 % of control | dose: 400.0 mg/kg/injection, schedule: Q04DX003 (ip), vehicle: saline sonified 103 % of control

O=C(c1ccccc1)c1ccccc1O
inactive: dose: 50.0 mg/kg/injection, schedule: Q01DX001 (ip), vehicle: other 90 % of control | dose: 100.0 mg/kg/injection, schedule: Q01DX001 (ip), vehicle: other 93 % of control | dose: 200.0 mg/kg/injection, schedule: Q01DX001 (ip), vehicle: other 101 % of control | dose: 400.0 mg/kg/injection, schedule: Q01DX001 (ip), vehicle: other 95 % of control

N#Cc1cccc(OCCOc2cccc3ccccc23)c1
inactive: dose: 100.0 mg/kg/injection, schedule: Q01DX001 (ip), vehicle: saline with Tween-80 96 % of control | dose: 200.0 mg/kg/injection, schedule: Q01DX001 (ip), vehicle: saline with Tween-80 94 % of control | dose: 400.0 mg/kg/injection, schedule: Q01DX001 (ip), vehicle: saline with Tween-80 87 % of control

COc1cc(C(=O)CCC(=O)O)cc(OC)c1OC
inactive: [13] 96 % of control | [10] 96 % of control | [14] 104 % of control | [11] 102 % of control | [17] 102 % of control | [12] 93 % of control

O=C(C=Nc1ccc([N+](=O)[O-])cc1)c1c2ccccc2cc2ccccc12
inactive: [18] 107 % of control | [19] 102 % of control | dose: 400.0 mg/kg/injection, schedule: Q01DX001 (ip), vehicle: Klucel (hydroxypropylcellulose) (HPC) 106 % of control
